Assay results: patent publication US20250049787A1, “TREATMENT FOR ACUTE MYELOID LEUKEMIA OR LYMPHOMA” (UNIVERSITY HEALTH NETWORK, priority 2021, published 2025)
Where a name gives a salt, the structure may show the parent alone.

Legend:
Assay in all cases: Growth inhibition, Alamar Blue
Assay type in all cases: cell-based
OCI-LY10 = conditions: Homo sapiens, 72 h; OCI-LY10, NHL, ABC-DLBCL; 3 days
Method: (§1) Cell lines were obtained from American Type Culture Collection (ATCC) and maintained according to the supplier's instructions, and from Dr. Mark Minden (Princess Margaret Cancer Centre, Toronto, Canada). Short tandem repeat (STR) profiling was used to verify authenticity of the cell lines. Peripheral blood from healthy human donors was obtained from the Hematology Malignancy Tissue Bank at the University Health Network. Peripheral blood mononuclear cells (PBMC) were prepared from the blood by density gradient centrifugation using Ficoll-Paque PLUS by manufacturer's instructions (GE Healthcare Life Sciences). […] Compound (I) tartrate was prepared as a 10 mM stock solution in 100% DMSO. The stock solution was diluted with RPMI-1640 (Invitrogen) containing 10% FBS (fetal bovine serum) such that the final concentrations ranged from 300 fM to 300 μM. Aliquots (20 μL) from each concentration were overlaid to 180 μL of pre-seeded cells to achieve final concentrations of 30 fM to 30 μM. After 3 days, cell growth in each well was assessed by Alamar Blue assay reagent (Invitrogen). Raw fluorescence (λEM=590 nm) values were adjusted by subtracting the average of the baseline readings from untreated cells assessed one day after cell seeding. Relative cell growth was calculated by comparing to DMSO-treated cells. The concentrations at which cell growth was inhibited by 50% (growth inhibition IC50) were calculated using GraphPad PRISM software (GraphPad Software Inc.).

SU-DHL-8 = conditions: Homo sapiens, 72 h; SU-DHL-8, NHL, GCB-DLBCL; 3 days
Method: as §1

OCI-AML2 = conditions: Homo sapiens, 72 h; OCI-AML2, AML M4; 3 days
Method: as §1

OCI-AML3 = conditions: Homo sapiens, OCI-AML-3, 72 h; OCI-AML3, AML M4; 3 days
Method: as §1

NALM-16 = conditions: Homo sapiens, NALM16, 72 h; NALM-16, B-ALL; 3 days
Method: as §1

OCI-AML4 = conditions: Homo sapiens, 72 h; OCI-AML4, AML M4; 3 days
Method: as §1

NB4 = conditions: Homo sapiens, NB-4, 72 h; NB4, AML M3; 3 days
Method: as §1

REH = conditions: Homo sapiens, 72 h, B-ALL, 3 days
Method: as §1

NALM-6 = conditions: Homo sapiens, 72 h; NALM-6, B-ALL; 3 days
Method: as §1

RAJI = conditions: Homo sapiens, 72 h, NHL, Burkitt's lymphoma, 3 days
Method: as §1

THP-1 = conditions: Homo sapiens, 72 h; THP-1, AML M5; FLT3 wild-type, protein expressed; 3 days
Method: as §1

OCI-LY3 = conditions: Homo sapiens, 72 h; OCI-LY3, NHL, ABC-DLBCL; 3 days
Method: as §1

MOLM-13 = conditions: Homo sapiens, 72 h; MOLM-13, AML M5; FLT3 ITD + wild-type, protein not expressed; 3 days
Method: as §1

RS4; 11 = conditions: Homo sapiens, 72 h, 11, B-ALL, 3 days
Method: as §1

OCI-LY8 = conditions: Homo sapiens, 72 h; OCI-LY8, NHL, GCB-DLBCL; 3 days
Method: as §1

MOLT-4 = conditions: Homo sapiens, 72 h; MOLT-4, T-ALL; 3 days
Method: as §1

HL-60 = conditions: Homo sapiens, 72 h; HL-60, AML M2; FLT3 wild-type, protein expressed; 3 days
Method: as §1

DAUDI = conditions: Homo sapiens, 72 h, NHL, Burkitt's lymphoma, 3 days
Method: as §1

OCI-AML5 = conditions: Homo sapiens, OCI-AML-5, 72 h; OCI-AML5, AML M4; 3 days
Method: as §1

OCI-LY18 = conditions: Homo sapiens, 72 h; OCI-LY18, NHL, GCB-DLBCL; 3 days
Method: as §1

JURKAT = conditions: Homo sapiens, 72 h, T-ALL, 3 days
Method: as §1

K562 = conditions: Homo sapiens, 72 h; K562, CML; 3 days
Method: as §1

U937 = conditions: Homo sapiens, U-937, 72 h; U937, AML M5; 3 days
Method: as §1

MV-4-11 = conditions: Homo sapiens, MV4-11, 72 h; MV-4-11, AML M5; FLT3 ITD, protein expressed; 3 days
Method: as §1

KOPN-8 = conditions: Homo sapiens, 72 h; KOPN-8, B-ALL; 3 days
Method: as §1

PBMC = conditions: 72 h, NORMAL (healthy human donors), 3 days
Method: as §1

For `CN1CCN(c2ccc3nc(-c4c(N)c5ccsc5[nH]c4=O)[nH]c3c2)CC1` [Compound (I) tartrate, 4-amino-5-(6-(4-methylpiperazin-1-yl)-1H-benzo[d]imidazol-2-yl)thieno[2,3-b]pyridin-6(7H)-one], the IC50 (OCI-LY10) was 570 nM, the IC50 (SU-DHL-8) was 2600 nM and the IC50 (OCI-AML2) was 1500 nM. It also gave an IC50 (OCI-AML3) of no less than 30000 nM, an IC50 (NALM-16) of 1100 nM and an IC50 (OCI-AML4) of 160 nM. The IC50 (NB4) was 940 nM, the IC50 (REH) was 1400 nM and the IC50 (NALM-6) was 10000 nM. It also gave an IC50 (RAJI) of 6600 nM, an IC50 (THP-1) of 1300 nM and an IC50 (OCI-LY3) of 240 nM. For the same compound, the IC50 (MOLM-13) was 1900 nM, the IC50 (RS4; 11) was 1700 nM and the IC50 (OCI-LY8) was 3600 nM. The IC50 (MOLT-4) was 1600 nM, the IC50 (HL-60) was 1200 nM and the IC50 (DAUDI) was 1300 nM. The IC50 (OCI-AML5) was 270 nM, the IC50 (OCI-LY18) was 90 nM and the IC50 (JURKAT) was 3400 nM. For the same compound, the IC50 (K562) was 6000 nM, the IC50 (U937) was 770 nM and the IC50 (MV-4-11) was 3.7 nM. It also gave an IC50 (KOPN-8) of 3300 nM and an IC50 (PBMC) of 14000 nM.
